We go through 31 molecules from US20070293512A1, “Condensed Pyrimidine Deriviative and Xanthine Oxidase Inhibitor” (priority 2004, published 2007).

Where a name gives a salt, the structure may show the parent alone.

For series [1], the target named is T1, Cow milk Xanthine Oxidase (Bos taurus, UniProt P80457).
T1 construct: Cow milk Xanthine Oxidase (Roche); purchased Roche; host or cells: cow milk (natural source)
The series can be described thus: Xanthine oxidase inhibition, in vitro (oxidation of xanthine, absorbance at 290 nm). Format: biochemical. The settings on record: xanthine 250 μM, 50 mM phosphate buffer pH 7.5, 30° C., 10 minutes. As for the experimental part:
The xanthine oxidase inhibiting action (in vitro test) of the compound of the invention was confirmed by measuring inhibition of oxidation of xanthine by xanthine oxidase, as described in Example 50. As is clear from Tables 11 and 12, the compounds of the invention show excellent xanthine oxidase inhibiting action.
Pharmacological Experiment 1 (In Vitro Measuring Method)
1. Preparation of Test Sample
The test compound was dissolved in dimethylsulfoxide and diluted with 50 mM phosphate buffer (pH 7.5), to give a solution of a predetermined concentration.
125 μL of each of the solutions of the test compound having different concentrations was added to 1 mL of a solution of Xanthine (SIGMA, 250 μM) in the 50 mM phosphor buffer (pH 7.5). The mixture was then pre-incubated at 30° C. for 5 min. Subsequently, to the pre-incubated mixture was added 125 μL of Cow milk Xanthine Oxidase (Roche) diluted with the 50 mM phosphate buffer (pH 7.5) to 70 mU/mL, and the mixture was subjected to reaction at 30° C. for 10 minutes. Then, 1N hydrochloric acid, (200 μL) was added to the reaction mixture to terminate the reaction. Subsequently, absorbance at OD 290 nm was measured by means of a spectrophotometer (Shimadzu UV-160A)., to obtain a inhibition ratio. The measured inhibition ration was used to obtain […]
The inhibition ratio was calculated according to the following formula: Inhibition ratio (%)=[1−(B−C)/(A−C)]×100 • A: absorbance of control • B: absorbance measured on a sample containing test compound • C: absorbance of blank (Test Results)

Series [2] has as its system in-plasma uric acid value. The series can be described thus: In vivo test: in-plasma uric acid value-inhibition after single oral administration to mouse. Particulars: ICR mouse, blood one hour after administration; for In Vivo (%) TMX-67 (0.3 mg/kg): activity value relative to TMX-67 (0.3 mg/kg), single oral 0.3 mg/kg; for In Vivo (%) allopurinol (3 mg/kg): activity value relative to allopurinol (3 mg/kg), single oral 3 mg/kg. The protocol: The xanthine oxidase inhibiting action was. further confirmed in vivo tests by measuring the uric acid concentration in a plasma obtained from mouse into which the compound of the invention had been orally administered. See Example 51, Tables 11 and 12.
Pharmacological Experiment 2 (In Vivo Test)
The test compound suspended in 1% methylcellulose solution in an amount of 0.3 mg/kg or 3 mg/kg was administered to unfasted ICR mouse (7 W) by forced single oral administration. The blood was collected from main artery from the mouse under etherization after one hour from the administration. The plasma was separated from the collected blood in the conventional manner. The plasma was then subjected to measurement of uric acid value by the enzyme method by means of an automatic analytical apparatus (7060E), to obtain an in-plasma uric acid value-inhibition ratio in the test sample-administered group as compared with a ratio.obtained in the normal group.
Based on the obtained in-plasma uric acid inhibition ratio, activity values (%) relative to activity values obtained in the simultaneously conducted tests using TMX-67 (0.3 mg/kg) or allopurinol (3 mg/kg).

T1 sequence (P80457 whole entry): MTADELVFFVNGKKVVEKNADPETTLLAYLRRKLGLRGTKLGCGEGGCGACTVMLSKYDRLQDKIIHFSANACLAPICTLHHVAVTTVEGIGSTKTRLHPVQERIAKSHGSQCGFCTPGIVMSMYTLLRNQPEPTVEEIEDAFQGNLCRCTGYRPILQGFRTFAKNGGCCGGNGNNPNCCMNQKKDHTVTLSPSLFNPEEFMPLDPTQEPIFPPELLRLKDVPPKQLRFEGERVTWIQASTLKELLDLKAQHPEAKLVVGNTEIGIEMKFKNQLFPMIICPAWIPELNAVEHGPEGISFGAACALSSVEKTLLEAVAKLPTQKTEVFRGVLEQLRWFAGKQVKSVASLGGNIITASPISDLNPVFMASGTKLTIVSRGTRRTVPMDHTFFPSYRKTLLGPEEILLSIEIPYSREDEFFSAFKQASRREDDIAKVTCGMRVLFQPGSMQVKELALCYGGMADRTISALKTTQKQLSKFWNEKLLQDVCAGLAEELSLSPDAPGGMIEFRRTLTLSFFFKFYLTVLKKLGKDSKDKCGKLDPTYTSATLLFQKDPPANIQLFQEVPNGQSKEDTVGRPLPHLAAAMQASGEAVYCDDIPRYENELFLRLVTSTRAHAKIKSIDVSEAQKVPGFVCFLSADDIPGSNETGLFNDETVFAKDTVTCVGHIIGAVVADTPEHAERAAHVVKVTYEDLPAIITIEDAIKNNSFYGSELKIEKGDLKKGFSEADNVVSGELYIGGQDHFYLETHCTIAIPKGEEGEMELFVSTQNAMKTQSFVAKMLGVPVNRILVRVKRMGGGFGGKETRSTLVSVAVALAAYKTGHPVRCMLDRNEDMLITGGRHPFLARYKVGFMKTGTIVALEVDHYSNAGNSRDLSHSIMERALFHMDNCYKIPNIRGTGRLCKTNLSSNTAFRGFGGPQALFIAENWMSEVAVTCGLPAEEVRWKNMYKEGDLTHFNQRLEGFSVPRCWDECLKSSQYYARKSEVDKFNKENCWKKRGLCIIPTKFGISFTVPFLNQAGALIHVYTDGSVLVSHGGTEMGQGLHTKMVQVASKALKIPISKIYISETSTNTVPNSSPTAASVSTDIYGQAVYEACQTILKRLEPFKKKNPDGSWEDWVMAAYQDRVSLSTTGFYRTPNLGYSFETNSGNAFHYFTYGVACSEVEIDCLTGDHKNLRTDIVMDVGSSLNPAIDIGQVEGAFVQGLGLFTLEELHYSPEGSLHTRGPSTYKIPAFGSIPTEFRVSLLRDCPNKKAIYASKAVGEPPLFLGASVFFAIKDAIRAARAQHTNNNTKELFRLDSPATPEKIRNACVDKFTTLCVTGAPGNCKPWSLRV

In general, IC50 refers to the concentration at which inhibition is half-maximal. A lower IC50 goes with greater potency. In series [1], “2-[3-Cyano-4-(2-fluorophenoxy)phenyl]-4-hydroxythiazolo[5,4-d]pyrimidine potassium salt [Example 46]” yielded an IC50 of 17.7 nM. The “In Vivo (%) TMX-67 (0.3 mg/kg)” value in series [2] turned out to be 223%.

As to “2-[3-Cyano-4-(4-fluorophenoxy)phenyl]-4-hydroxythiazolo[5,4-d]pyrimidine potassium salt [Example 37]”, in series [2], the “In Vivo (%) TMX-67 (0.3 mg/kg)” value is given as 107%.

The molecule “2-[4-(4-Chlorophenoxy)-3-cyanophenyl]-4-hydroxythiazolo[5,4-d]pyrimidine potassium salt [Example 24]” displayed an IC50 in series [1] of 18.5 nM. Moreover, in series [2], the “In Vivo (%) TMX-67 (0.3 mg/kg)” value is recorded as 28%.

Take “2-[4-(4-Chlorophenylthio)-3-cyanophenyl]-4-hydroxythiazolo[5,4-d]pyrimidine potassium salt [Example 10]”: in series [1], the IC50 turned out to be 22.6 nM. The “In Vivo (%) TMX-67 (0.3 mg/kg)” value in series [2] was 84%.

On to `O=[N+]([O-])c1cc(-c2nc3c(O)ncnc3s2)ccc1Sc1ccc(Cl)cc1` [Example 2, 2-[4-(4-Chlorophenylthio)-3-nitrophenyl]-4-hydroxythiazolo[5,4-d]pyrimidine], for which, in series [1], the IC50 stood at 13.8 nM.

In turn, `O=[N+]([O-])c1cc(-c2nc3c(O)ncnc3s2)ccc1Sc1ccc(Cl)cc1` [Example 3, 2-[4-(4-Chlorophenylthio)-3-nitrophenyl]-4-hydroxythiazolo[5,4-d]pyrimidine potassium salt] came in with an IC50 in series [1] of 19.2 nM.

Consider `O=[N+]([O-])c1cc(-c2nc3c(O)ncnc3s2)ccc1Sc1ccccc1` [Example 4, 4-Hydroxy-2-(3-nitro-4-phenylthiophenyl)thiazolo[5,4-d]pyrimidine], for which the IC50 in series [1] worked out at 18.6 nM.

The melting point is the temperature, or range, at which the solid turns liquid. As for `O=[N+]([O-])c1cc(-c2nc3c(O)ncnc3s2)ccc1Oc1ccc(Cl)cc1` [Example 5, 2-[4-(4-Chlorophenoxy)-3-nitrophenyl]-4-hydroxythiazolo[5,4-d]pyrimidine], the melting point is 304 to 306 °C (dec.). The molecule further yielded an IC50 in series [1] of 20.2 nM.

`O=[N+]([O-])c1cc(-c2nc3c(O)ncnc3o2)ccc1Sc1ccc(Cl)cc1` [Example 6, 2-[4-(4-Chlorophenylthio)-3-nitrophenyl]-4-hydroxyoxazolo[5,4-d]pyrimidine] registered a melting point greater than 250 °C. In series [1], this molecule gave an IC50 of 30.2 nM.

Turning to `O=[N+]([O-])c1cc(-c2nc3c([O-])ncnc3s2)ccc1Oc1ccccc1.[K+]` [Example 8, 2-(3-Nitro-4-phenoxyphenyl)-4-hydroxythia-zolo[5,4-d]pyrimidine potassium salt], in series [2], the “In Vivo (%) TMX-67 (0.3 mg/kg)” value is reported as 125%.

In series [1], `N#Cc1cc(-c2nc3c(O)ncnc3s2)ccc1Sc1ccc(Cl)cc1` [Example 9, 2-[4-(4-Chlorophenylthio)-3-cyanophenyl]-4-hydroxythiazolo[5,4-d]pyrimidine] had an IC50 of 14.6 nM.

Molecule `O=[N+]([O-])c1cc(-c2nc3c(O)ncnc3s2)ccc1Oc1ccc(Cl)c2ccccc12` [Example 11, 2-[4-(4-Chloro-1-naphthoxy)-3-nitrophenyl]-4-hydroxythiazolo[5,4-d]pyrimidine] yielded an IC50 in series [1] of 51.9 nM.

As to `O=[N+]([O-])c1cc(-c2nc3c([O-])ncnc3s2)ccc1Oc1ccc(F)cc1.[K+]` [Example 13, 2-[4-(4-Fluorophenoxy)-3-nitrophenyl]-4-hydroxythiazolo[5,4-d]pyrimidine potassium salt], in series [2], the “In Vivo (%) TMX-67 (0.3 mg/kg)” value was found to be 141%.

In series [1], `COc1ccc(Oc2ccc(-c3nc4c(O)ncnc4s3)cc2[N+](=O)[O-])cc1` [Example 14, 2-[4-(4-Methoxyphenoxy)-3-nitrophenyl]-4-hydroxythiazolo[5,4-d]pyrimidine] gave an IC50 of 8.5 nM.

Turning to `O=[N+]([O-])c1cc(-c2nc3c(O)ncnc3s2)ccc1Oc1ccc(C(F)(F)F)cc1` [Example 16, 4-Hydroxy-2-[3-nitro-4-[4-(trifluoromethyl)-phenoxy]phenyl]thiazolo[5,4-d]pyrimidine], the IC50 in series [1] worked out at 52.6 nM.

Molecule `O=[N+]([O-])c1cc(-c2nc3c(O)ncnc3s2)ccc1Oc1cccc(Cl)c1` [Example 17, 2-[4-(3-Chlorophenoxy)-3-nitrophenyl]-4-hydroxythiazolo[5,4-d]pyrimidine] had an IC50 in series [1] of 16.8 nM.

For the molecule `O=[N+]([O-])c1cc(-c2nc3c(O)ncnc3s2)ccc1Oc1ccccc1F` [Example 21, 2-[4-(2-Fluorophenoxy)-3-nitrophenyl]-4-hydroxythiazolo[5,4-d]pyrimidine], half-maximal inhibition in series [1] (IC50) was put at 5.4 nM.

As to `N#Cc1cc(-c2nc3c(O)ncnc3s2)ccc1Oc1ccc(Cl)cc1` [Example 23, 2-[4-(4-Chlorophenoxy)-3-cyanophenyl]-4-hydroxythiazolo[5,4-d]pyrimidine], in series [1], the IC50 was 27 nM.

In turn, `COC(=O)c1ccc(Oc2ccc(-c3nc4c(O)ncnc4s3)cc2[N+](=O)[O-])cc1` [Example 25, 4-Hydroxy-2-[4-(4-methoxycarbonylphenoxy)-3-nitrophenyl]thiazolo[5,4-d]pyrimidine] registered an IC50 in series [1] of 18.7 nM.

`O=C(O)c1ccc(Oc2ccc(-c3nc4c(O)ncnc4s3)cc2[N+](=O)[O-])cc1` [Example 26, 2-[4-(4-Carboxyphenoxy)-3-nitrophenyl]-4-hydroxythiazolo[5,4-d]pyrimidine] returned an IC50 in series [1] of 9.7 nM.

For the molecule `O=C([O-])c1ccc(Oc2ccc(-c3nc4c([O-])ncnc4s3)cc2[N+](=O)[O-])cc1.[K+].[K+]` [Example 27, 2-[4-(4-Carboxyphenoxy)-3-nitrophenyl]-4-hydroxythiazolo[5,4-d]pyrimidine dipotassium salt], the “In Vivo (%) allopurinol (3 mg/kg)” value in series [2] worked out at 36%.

On to `O=[N+]([O-])c1cc(-c2nc3c(O)ncnc3s2)ccc1Oc1ccc(Oc2ccccc2)cc1` [Example 28, 2-[3-Nitro-4-(4-phenoxyphenoxy)phenyl]-4-hydroxythiazolo[5,4-d]pyrimidine], for which, in series [1], the IC50 came out at 67.6 nM.

Consider `O=[N+]([O-])c1cc(-c2nc3c(O)ncnc3s2)ccc1Nc1ccccc1` [Example 29, 2-(3-Nitro-4-phenylaminophenyl)-4-hydroxy-thiazolo[5,4-d]pyrimidine], for which, in series [1], the IC50 was found to be 24.6 nM.

Take `CC(C)c1ccc(Oc2ccc(-c3nc4c(O)ncnc4s3)cc2[N+](=O)[O-])cc1` [Example 30, 4-Hydroxy-2-[4-(4-isopropylphenoxy)-3-nitro-phenyl]thiazolo[5,4-d]pyrimidine]: 119 nM corresponded to half-maximal inhibition in series [1] (IC50).

The molecule `O=[N+]([O-])c1cc(-c2nc3c(O)ncnc3s2)ccc1Oc1ccc(-c2ccccc2)cc1` [Example 31, 4-Hydroxy-2-[3-nitro-4-(4-phenylphenoxy)-phenyl]thiazolo[5,4-d]pyrimidine] came in with an IC50 in series [1] of 36.8 nM.

Regarding `O=[N+]([O-])c1cc(-c2nc3c(O)ncnc3s2)ccc1Oc1cccnc1.[K]` [Example 33, 4-Hydroxy-2-[3-nitro-4-(3-pyridyloxy)-phenyl]thiazolo[5,4-d)pyrimidine potassium salt], the “In Vivo (%) TMX-67 (0.3 mg/kg)” value in series [2] turned out to be 48%.

Consider `O=[N+]([O-])c1cc(-c2nc3c(O)ncnc3s2)ccc1Oc1ccc(O)cc1` [Example 35, 4-Hydroxy-2-[4-(4-hydroxyphenoxy)-3-nitro-phenyl]thiazolo[5,4-d]pyrimidine], for which the “In Vivo (%) TMX-67 (0.3 mg/kg)” value in series [2] worked out at 61%.

Consider `O=[N+]([O-])c1cc(-c2nc3c(O)ncnc3o2)ccc1Oc1ccc(F)cc1` [Example 39, 2-[4-(4-Fluorophenoxy)-3-nitrophenyl]-4-hydroxyoxazolo[5,4-d]pyrimidine potassium salt], for which the IC50 in series [1] came out at 13.5 nM.

As to `COc1ncnc2sc(-c3ccc(Oc4ccc(F)cc4)c(C#N)c3)nc12` [Example 40, 2-[3-Cyano-4-(4-fluorophenoxy)phenyl]-4-methoxythiazolo[5,4-d]pyrimidine], in series [2], the “In Vivo (%) TMX-67 (0.3 mg/kg)” value is given as 30% and the “In Vivo (%) allopurinol (3 mg/kg)” value is 107%.

`N#Cc1cc(-c2nc3c([O-])ncnc3s2)ccc1Sc1ccc(F)cc1.[K+]` [Example 43, 2-[3-Cyano-4-(4-fluorophenylthio)phenyl]-4-hydroxythiazolo[5,4-d]pyrimidine potassium salt]: in series [2], the “In Vivo (%) TMX-67 (0.3 mg/kg)” value was determined as 185%.

In series [1], `N#Cc1cc(-c2nc3c([O-])ncnc3s2)ccc1Oc1ccccc1.[K+]` [Example 49, 2-(3-Cyano-4-phenoxyphenyl)-4-hydroxy-thiazolo[5,4-d]pyrimidine potassium salt] returned an IC50 of 10.8 nM. In addition, the “In Vivo (%) TMX-67 (0.3 mg/kg)” value in series [2] is reported as 140%.
